Assay results published in patent publication US20110300116A1, “Method for Generating a Recombinant Clonal Cell Line and Novel Reagents for Use in the Method” (CELLAURA TECHNOLOGIES LTD, priority 2007, published 2011).

Target: T1, human dopamine D1 receptor (Homo sapiens, UniProt P21728)
T1 construct: expressed in transfected cells; host or cells: CHO cells
Experiment: Confocal imaging of fluorescent ligand binding to a mixed population cell line expressing the human dopamine D1 receptor
Format: cell-based
Settings: ligand 10 nM; human D1-receptor expressing CHO mixed population before antibiotic resistance selection and prior to FACS sorting; confocal microscopy, FIG. 3
Description: In FIG. 3 is shown a confocal microscope image of N-{4-aza-3,7-dioxo-7-[4-(8-methoxy-3-methyl-2,3,4,5-tetrahydro-1H-3-benzazepine-1-yl)phenylamino]heptyl}-6-{2-[4-(2-(4,4-difluoro-4,4a-dihydro-5-(thiophen-2-yl)-4-bora-3a,4a-diaza-s-indacene-3-yl)vinyl) ligand (10 nM) binding to human dopamine D1-receptor expressing CHO “cell line” before antibiotic resistance selection and prior to FACS™ sorting. Red images (light grey) show cells binding the fluorescent D1-receptor antagonist and the blue images (dark grey) show the Hoechst staining of the cellular nuclei. It is clear that only about 20% of the cells are expressing the human dopamine D1 receptor.
A mixed population cell line expressing the human dopamine D1 receptor was screened with novel fluorescent dopamine D1 receptor antagonist N-{4-aza-3,7-dioxo-7-[4-(8-methoxy-3-methyl-2,3,4,5-tetrahydro-1H-3-benzazepine-1-yl)phenylamino]heptyl}-6-{2-[4-(2-(4,4-difluoro-4,4a-dihydro-5-(thiophen-2-yl)-4-bora-3a,4a-diaza-s-indacene-3-yl)vinyl), prepared as in Example 1. […] Using FACS cell sorting, these cells are sorted and separated into populations of cells expressing low, medium or high levels of the dopamine D1 receptor. […] A cell sorter such as the Beckman-Coulter Altra can then be used to put individual cells into single wells of a 96 well plate.

T1 sequence (P21728 whole entry): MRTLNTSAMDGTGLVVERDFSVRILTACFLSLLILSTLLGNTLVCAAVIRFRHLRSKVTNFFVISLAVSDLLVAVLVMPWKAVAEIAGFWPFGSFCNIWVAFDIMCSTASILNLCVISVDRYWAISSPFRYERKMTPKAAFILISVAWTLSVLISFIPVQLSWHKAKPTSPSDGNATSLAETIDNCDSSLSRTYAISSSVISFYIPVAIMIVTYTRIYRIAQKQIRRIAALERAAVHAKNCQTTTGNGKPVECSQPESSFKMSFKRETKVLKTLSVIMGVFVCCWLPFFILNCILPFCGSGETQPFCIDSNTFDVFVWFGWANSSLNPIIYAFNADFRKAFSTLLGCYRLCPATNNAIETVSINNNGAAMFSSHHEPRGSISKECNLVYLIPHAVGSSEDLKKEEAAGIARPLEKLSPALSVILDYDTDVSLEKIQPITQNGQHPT

cells that label with the fluorescent D1-receptor antagonist: about 20%
Structure (SMILES): CN1CCc2ccc(O)cc2C(c2ccc(NC(=O)CCNC(=O)CCNC(=O)CCCCCNC(=O)COc3ccc(/C=C/C4=[N+]5C(=Cc6ccc(-c7cccs7)n6[B-]5(F)F)C=C4)cc3)cc2)C1 (stereo not shown)
